The record followed here is PMC6327980 (Journal of Enzyme Inhibition and Medicinal Chemistry, 2018).

One experiment addresses T1, VchCAβ (Vibrio cholerae, UniProt Q9KUD6).
T1 construct: gene VC_0586
Description: biochemical.

The target of another experiment is T2, VchCAα (Vibrio cholerae, UniProt Q9KMP6).
T2 construct: gene VC_A0274
Description: biochemical.

The next experiment concerns the target T3, BpsCAβ (Burkholderia pseudomallei, UniProt Q63Y17).
T3 construct: gene BPSL0372
It counts as biochemical. The conditions noted are these: read-out: BpsCAβ.

The target of the next experiment is T4, BpsCAγ.
T4 construct: gene BpsCAgamma
It counts as biochemical, Burkholderia pseudomallei.

Structures are written as SMILES. Read-outs that look alike come from different tables or passages of the source.

T2 sequence (Q9KMP6 21-239 limits assumed): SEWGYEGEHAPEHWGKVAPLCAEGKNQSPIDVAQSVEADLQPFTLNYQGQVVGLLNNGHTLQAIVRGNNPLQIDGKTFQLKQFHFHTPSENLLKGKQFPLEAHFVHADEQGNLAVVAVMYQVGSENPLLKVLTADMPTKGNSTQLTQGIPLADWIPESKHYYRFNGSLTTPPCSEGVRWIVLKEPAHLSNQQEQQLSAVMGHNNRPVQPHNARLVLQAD
T1 sequence (Q9KUD6 1-222): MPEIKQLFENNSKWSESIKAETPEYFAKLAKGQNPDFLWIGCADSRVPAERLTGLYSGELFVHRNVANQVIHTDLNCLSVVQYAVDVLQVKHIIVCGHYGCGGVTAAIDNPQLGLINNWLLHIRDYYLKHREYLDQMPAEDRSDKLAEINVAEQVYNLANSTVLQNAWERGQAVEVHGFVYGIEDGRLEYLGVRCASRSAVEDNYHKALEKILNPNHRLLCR
T3 sequence (Q63Y17 1-256): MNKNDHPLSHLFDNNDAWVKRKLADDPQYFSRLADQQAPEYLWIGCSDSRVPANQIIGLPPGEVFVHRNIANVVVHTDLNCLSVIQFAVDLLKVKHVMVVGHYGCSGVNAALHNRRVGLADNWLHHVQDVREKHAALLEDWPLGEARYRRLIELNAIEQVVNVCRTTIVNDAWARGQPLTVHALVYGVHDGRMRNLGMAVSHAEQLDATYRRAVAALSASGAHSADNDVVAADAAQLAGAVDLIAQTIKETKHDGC

For `NS(=O)(=O)c1ccc(-c2ncc(C[Te]c3ccccc3)[se]2)cc1` [9a], the Ki on VchCAβ was determined as 7.7 µM; at VchCAα it was 0.94 µM; at BpsCAβ, 0.92 µM; on BpsCAγ (read-out: VchCAγ), 8.9 µM.

With `Cc1ccc([Te]Cc2cnc(-c3ccc(S(N)(=O)=O)cc3)[se]2)cc1` [9b], the Ki turned out to be 7.72 µM at VchCAβ, 0.47 µM at VchCAα, 0.32 µM at BpsCAβ and 7.6 µM on BpsCAγ (read-out: VchCAγ).

Regarding `COc1ccc([Te]Cc2cnc(-c3ccc(S(N)(=O)=O)cc3)[se]2)cc1` [9c], the values for the Ki at VchCAβ and at VchCAα were 9.08 µM and 0.77 µM, respectively.

With `NS(=O)(=O)c1ccc(-c2ncc(C[Se]c3ccccc3)[se]2)cc1` [10a], the Ki at VchCAβ amounted to 8.84 µM; at VchCAα, 0.87 µM.

Take `Cc1ccc([Se]Cc2cnc(-c3ccc(S(N)(=O)=O)cc3)[se]2)cc1` [10b]: the Ki at VchCAβ was 8.59 µM; at VchCAα, 0.46 µM.

On to `COc1ccc([Se]Cc2cnc(-c3ccc(S(N)(=O)=O)cc3)[se]2)cc1` [10c], for which the figures for the Ki on VchCAβ and on VchCAα were 6.79 µM and 0.92 µM, respectively.

Turning to `N=C(N)SCc1cnc(-c2ccc(S(N)(=O)=O)cc2)[se]1` [compound 11, 11], the Ki came out at 9.12 µM at VchCAβ, 0.44 µM on VchCAα and 6.55 µM on BpsCAγ (read-out: BpsCAγ).
